Data taken from patent publication US20260158017A1, “KIF18A INHIBITOR” (WIGEN BIOMEDICINE TECHNOLOGY (SHANGHAI) CO., LTD., priority 2021, published 2026).
pIC50: −log10 of the molar value.

Each compound was assayed against T1, Recombinant human KIF18A (1-467His-tagged) protein (Homo sapiens, UniProt Q8NI77) (assay: KIF18A enzyme assay (microtubule-stimulated ATPase activity, ADP-Glo)). Settings: 30 nM KIF18A, 75 μM ATP, 30 μg/mL pig microtubules; read-out: Inhibitory activity against KIF18A IC50.
T1 construct: Recombinant human KIF18A (1-467His-tagged) protein; His; made in house
Type: biochemical
Outline: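 Buffer 15 mM Tris pH 7.5, 10 mM MgCl2, 0.01% Pluronic F-68, 1 μM paclitaxel, 30 μg/mL pig microtubules; reactions at room temperature. IC50 from inhibition relative to DMSO.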

T1 sequence (Q8NI77 1-467): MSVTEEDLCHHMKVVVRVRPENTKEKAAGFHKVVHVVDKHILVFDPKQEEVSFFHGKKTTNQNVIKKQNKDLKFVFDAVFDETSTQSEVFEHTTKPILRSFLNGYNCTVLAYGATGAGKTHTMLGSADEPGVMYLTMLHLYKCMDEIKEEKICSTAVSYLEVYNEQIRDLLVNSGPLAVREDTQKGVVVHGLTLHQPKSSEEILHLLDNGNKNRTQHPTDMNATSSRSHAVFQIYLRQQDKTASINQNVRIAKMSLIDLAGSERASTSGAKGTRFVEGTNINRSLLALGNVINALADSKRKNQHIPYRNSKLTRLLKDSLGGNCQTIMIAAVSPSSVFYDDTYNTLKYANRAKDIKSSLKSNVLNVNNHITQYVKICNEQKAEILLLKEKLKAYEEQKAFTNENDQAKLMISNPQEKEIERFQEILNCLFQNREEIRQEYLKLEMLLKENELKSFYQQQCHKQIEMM
T1 sequence (P02550 whole entry partner): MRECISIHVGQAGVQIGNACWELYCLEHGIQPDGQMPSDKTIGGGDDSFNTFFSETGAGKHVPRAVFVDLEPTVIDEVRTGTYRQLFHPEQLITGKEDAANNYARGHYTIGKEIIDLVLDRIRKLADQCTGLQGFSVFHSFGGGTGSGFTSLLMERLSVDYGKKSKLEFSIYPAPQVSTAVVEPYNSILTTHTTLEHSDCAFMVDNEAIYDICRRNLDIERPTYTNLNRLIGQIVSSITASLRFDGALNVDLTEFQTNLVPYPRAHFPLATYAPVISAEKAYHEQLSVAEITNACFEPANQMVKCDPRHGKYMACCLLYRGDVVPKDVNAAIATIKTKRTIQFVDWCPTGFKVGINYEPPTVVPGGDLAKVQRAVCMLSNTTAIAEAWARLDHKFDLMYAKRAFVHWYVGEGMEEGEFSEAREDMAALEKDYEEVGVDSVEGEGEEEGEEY
T1 sequence (P02554 whole entry partner): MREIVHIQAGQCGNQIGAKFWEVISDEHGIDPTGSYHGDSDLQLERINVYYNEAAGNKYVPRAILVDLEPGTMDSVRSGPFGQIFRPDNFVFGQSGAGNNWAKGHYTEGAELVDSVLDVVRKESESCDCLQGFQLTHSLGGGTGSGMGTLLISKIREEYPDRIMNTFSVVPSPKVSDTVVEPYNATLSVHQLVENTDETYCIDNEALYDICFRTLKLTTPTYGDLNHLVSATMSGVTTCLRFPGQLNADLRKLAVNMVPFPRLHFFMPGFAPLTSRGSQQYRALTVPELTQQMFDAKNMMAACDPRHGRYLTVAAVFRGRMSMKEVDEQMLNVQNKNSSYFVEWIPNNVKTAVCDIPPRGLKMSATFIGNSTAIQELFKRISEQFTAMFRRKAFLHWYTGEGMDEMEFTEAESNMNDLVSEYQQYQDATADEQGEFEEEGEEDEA

Structure (SMILES) | pIC50
O=C(Nc1ccc(OCF)c(N2CCC(F)CC2)c1)c1ccc(S(=O)(=O)NCCO)cc1N1CCC2(CC1)CC2 [Compound 409] | ≥ 7.00
O=C(Nc1ccc(OCF)c(N2CC3CC3C2)c1)c1ccc(S(=O)(=O)NCCO)cc1N1CCC2(CC1)CC2 (stereo not shown) [Compound 410] | ≥ 7.00
CC(C)(CO)Nc1cc(NC(=O)c2ccc(S(=O)(=O)NCCO)cc2N2CCC3(CC2)CC3)ccc1OCF [Compound 411] | ≥ 7.00
O=C(Nc1ccc(OCF)c(N2CCOCC2)c1)c1ccc(S(=O)(=O)NCCO)cc1N1CCC2(CC1)CC2 [Compound 412] | ≥ 7.00
C[C@@H](CO)S(=O)(=O)Nc1ccc(C(=O)Nc2ccc(OCF)c(N3CCC(F)(F)CC3)c2)c(N2CCC3(CC2)CC3)c1 [Compound 413] | ≥ 7.00
C[C@H](CO)NS(=O)(=O)c1ccc(C(=O)Nc2ccc(OCF)c(N3CCC(F)(F)CC3)c2)c(N2CCC3(CC2)CC3)c1 [Compound 414] | ≥ 7.00
C[C@@H]1CN(c2cc(NC(=O)c3ccc(S(=O)(=O)N[C@@H](C)CO)cc3N3CCC4(CC3)CC4)ccc2OCF)CCO1 [Compound 415] | ≥ 7.00
C[C@H](CO)NS(=O)(=O)c1ccc(C(=O)Nc2ccc(OCF)c(N3CCO[C@H](C)C3)c2)c(N2CCC3(CC2)CC3)c1 [Compound 416] | ≥ 7.00
O=C(Nc1ccc(OCF)c(N2CCC(F)(F)CC2)n1)c1ccc(NS(=O)(=O)CCO)cc1N1CCC2(CC1)CC2 [Compound 417] | ≥ 7.00
C[C@@H]1CN(c2nc(NC(=O)c3ccc(NS(=O)(=O)CCO)cc3N3CCC4(CC3)CC4)ccc2OCF)CCO1 [Compound 418] | ≥ 7.00
C[C@H]1CN(c2nc(NC(=O)c3ccc(NS(=O)(=O)CCO)cc3N3CCC4(CC3)CC4)ccc2OCF)CCO1 [Compound 419] | ≥ 7.00
O=C(Nc1ccc(OCF)c(N2CC(F)(F)C2)n1)c1ccc(NS(=O)(=O)CCO)cc1N1CCC2(CC1)CC2 [Compound 420] | ≥ 7.00
O=C(Nc1ccc(OCF)c(OCCC(F)(F)F)n1)c1ccc(NS(=O)(=O)CCO)cc1N1CCC2(CC1)CC2 [Compound 421] | ≥ 7.00
O=C(Nc1ccc(OCF)c(N2CCC3(CC3)C2)n1)c1ccc(NS(=O)(=O)CCO)cc1N1CCC2(CC1)CC2 [Compound 422] | ≥ 7.00
O=C(Nc1ccc(OCF)c(OC2CCC2)n1)c1ccc(NS(=O)(=O)CCO)cc1N1CCC2(CC1)CC2 [Compound 423] | ≥ 7.00
CC1(F)CCN(c2nc(NC(=O)c3ccc(NS(=O)(=O)CCO)cc3N3CCC4(CC3)CC4)ccc2OCF)C1 (stereo not shown) [Compound 424] | ≥ 7.00
O=C(Nc1ccc(OCF)c(N2CCC(F)CC2)n1)c1ccc(NS(=O)(=O)CCO)cc1N1CCC2(CC1)CC2 [Compound 425] | ≥ 7.00
O=C(Nc1ccc(OCF)c(N2CC3CC3C2)n1)c1ccc(NS(=O)(=O)CCO)cc1N1CCC2(CC1)CC2 (stereo not shown) [Compound 426] | ≥ 7.00
CC(C)(CO)Nc1nc(NC(=O)c2ccc(NS(=O)(=O)CCO)cc2N2CCC3(CC2)CC3)ccc1OCF [Compound 427] | ≥ 7.00
O=C(Nc1ccc(OCF)c(N2CCOCC2)n1)c1ccc(NS(=O)(=O)CCO)cc1N1CCC2(CC1)CC2 [Compound 428] | ≥ 7.00
C[C@@H](CO)S(=O)(=O)Nc1ccc(C(=O)Nc2ccc(OCF)c(N3CCC(F)(F)CC3)n2)c(N2CCC3(CC2)CC3)c1 [Compound 429] | ≥ 7.00
C[C@H](CO)S(=O)(=O)Nc1ccc(C(=O)Nc2ccc(OCF)c(N3CCC(F)(F)CC3)n2)c(N2CCC3(CC2)CC3)c1 [Compound 430] | ≥ 7.00

Structure (SMILES) | pIC50
C[C@@H]1CN(c2nc(NC(=O)c3ccc(NS(=O)(=O)[C@@H](C)CO)cc3N3CCC4(CC3)CC4)ccc2OCF)CCO1 [Compound 431] | ≥ 7.00
C[C@@H]1CN(c2nc(NC(=O)c3ccc(NS(=O)(=O)[C@H](C)CO)cc3N3CCC4(CC3)CC4)ccc2OCF)CCO1 [Compound 432] | ≥ 7.00
O=C(Nc1ccc(OCF)c(N2CCC(F)(F)CC2)n1)c1ccc(S(=O)(=O)NCCO)cc1N1CCC2(CC1)CC2 [Compound 433] | ≥ 7.00
C[C@@H]1CN(c2nc(NC(=O)c3ccc(S(=O)(=O)NCCO)cc3N3CCC4(CC3)CC4)ccc2OCF)CCO1 [Compound 434] | ≥ 7.00
C[C@H]1CN(c2nc(NC(=O)c3ccc(S(=O)(=O)NCCO)cc3N3CCC4(CC3)CC4)ccc2OCF)CCO1 [Compound 435] | ≥ 7.00
O=C(Nc1ccc(OCF)c(N2CC(F)(F)C2)n1)c1ccc(S(=O)(=O)NCCO)cc1N1CCC2(CC1)CC2 [Compound 436] | ≥ 7.00
O=C(Nc1ccc(OCF)c(OCCC(F)(F)F)n1)c1ccc(S(=O)(=O)NCCO)cc1N1CCC2(CC1)CC2 [Compound 437] | ≥ 7.00
O=C(Nc1ccc(OCF)c(N2CCC3(CC3)C2)n1)c1ccc(S(=O)(=O)NCCO)cc1N1CCC2(CC1)CC2 [Compound 438] | ≥ 7.00
O=C(Nc1ccc(OCF)c(OC2CCC2)n1)c1ccc(S(=O)(=O)NCCO)cc1N1CCC2(CC1)CC2 [Compound 439] | ≥ 7.00
CC1(F)CCN(c2nc(NC(=O)c3ccc(S(=O)(=O)NCCO)cc3N3CCC4(CC3)CC4)ccc2OCF)C1 (stereo not shown) [Compound 440] | ≥ 7.00
O=C(Nc1ccc(OCF)c(N2CCC(F)CC2)n1)c1ccc(S(=O)(=O)NCCO)cc1N1CCC2(CC1)CC2 [Compound 441] | ≥ 7.00
O=C(Nc1ccc(OCF)c(N2CC3CC3C2)n1)c1ccc(S(=O)(=O)NCCO)cc1N1CCC2(CC1)CC2 (stereo not shown) [Compound 442] | ≥ 7.00
CC(C)(CO)Nc1nc(NC(=O)c2ccc(S(=O)(=O)NCCO)cc2N2CCC3(CC2)CC3)ccc1OCF [Compound 443] | ≥ 7.00
O=C(Nc1ccc(OCF)c(N2CCOCC2)n1)c1ccc(S(=O)(=O)NCCO)cc1N1CCC2(CC1)CC2 [Compound 444] | ≥ 7.00
C[C@@H](CO)NS(=O)(=O)c1ccc(C(=O)Nc2ccc(OCF)c(N3CCC(F)(F)CC3)n2)c(N2CCC3(CC2)CC3)c1 [Compound 445] | ≥ 7.00
C[C@H](CO)NS(=O)(=O)c1ccc(C(=O)Nc2ccc(OCF)c(N3CCC(F)(F)CC3)n2)c(N2CCC3(CC2)CC3)c1 [Compound 446] | ≥ 7.00
C[C@@H]1CN(c2nc(NC(=O)c3ccc(S(=O)(=O)N[C@@H](C)CO)cc3N3CCC4(CC3)CC4)ccc2OCF)CCO1 [Compound 447] | ≥ 7.00
C[C@H](CO)NS(=O)(=O)c1ccc(C(=O)Nc2ccc(OCF)c(N3CCO[C@H](C)C3)n2)c(N2CCC3(CC2)CC3)c1 [Compound 448] | ≥ 7.00
O=C(Nc1ccc(OCF)c(N2CCC(F)(F)CC2)c1)c1cnc(NS(=O)(=O)CCO)cc1N1CCC2(CC1)CC2 [Compound 449] | ≥ 7.00
C[C@@H]1CN(c2cc(NC(=O)c3cnc(NS(=O)(=O)CCO)cc3N3CCC4(CC3)CC4)ccc2OCF)CCO1 [Compound 450] | ≥ 7.00
C[C@H]1CN(c2cc(NC(=O)c3cnc(NS(=O)(=O)CCO)cc3N3CCC4(CC3)CC4)ccc2OCF)CCO1 [Compound 451] | ≥ 7.00
O=C(Nc1ccc(OCF)c(N2CC(F)(F)C2)c1)c1cnc(NS(=O)(=O)CCO)cc1N1CCC2(CC1)CC2 [Compound 452] | ≥ 7.00

Structure (SMILES) | pIC50
O=C(Nc1ccc(OCF)c(OCCC(F)(F)F)c1)c1cnc(NS(=O)(=O)CCO)cc1N1CCC2(CC1)CC2 [Compound 453] | ≥ 7.00
O=C(Nc1ccc(OCF)c(N2CCC3(CC3)C2)c1)c1cnc(NS(=O)(=O)CCO)cc1N1CCC2(CC1)CC2 [Compound 454] | ≥ 7.00
O=C(Nc1ccc(OCF)c(OC2CCC2)c1)c1cnc(NS(=O)(=O)CCO)cc1N1CCC2(CC1)CC2 [Compound 455] | ≥ 7.00
CC1(F)CCN(c2cc(NC(=O)c3cnc(NS(=O)(=O)CCO)cc3N3CCC4(CC3)CC4)ccc2OCF)C1 (stereo not shown) [Compound 456] | ≥ 7.00
O=C(Nc1ccc(OCF)c(N2CCC(F)CC2)c1)c1cnc(NS(=O)(=O)CCO)cc1N1CCC2(CC1)CC2 [Compound 457] | ≥ 7.00
O=C(Nc1ccc(OCF)c(N2CC3CC3C2)c1)c1cnc(NS(=O)(=O)CCO)cc1N1CCC2(CC1)CC2 (stereo not shown) [Compound 458] | ≥ 7.00
CC(C)(CO)Nc1cc(NC(=O)c2cnc(NS(=O)(=O)CCO)cc2N2CCC3(CC2)CC3)ccc1OCF [Compound 459] | ≥ 7.00
O=C(Nc1ccc(OCF)c(N2CCOCC2)c1)c1cnc(NS(=O)(=O)CCO)cc1N1CCC2(CC1)CC2 [Compound 460] | ≥ 7.00
C[C@@H](CO)S(=O)(=O)Nc1cc(N2CCC3(CC2)CC3)c(C(=O)Nc2ccc(OCF)c(N3CCC(F)(F)CC3)c2)cn1 [Compound 461] | ≥ 7.00
C[C@H](CO)S(=O)(=O)Nc1cc(N2CCC3(CC2)CC3)c(C(=O)Nc2ccc(OCF)c(N3CCC(F)(F)CC3)c2)cn1 [Compound 462] | ≥ 7.00
C[C@@H]1CN(c2cc(NC(=O)c3cnc(NS(=O)(=O)[C@@H](C)CO)cc3N3CCC4(CC3)CC4)ccc2OCF)CCO1 [Compound 463] | ≥ 7.00
C[C@@H]1CN(c2cc(NC(=O)c3cnc(NS(=O)(=O)[C@H](C)CO)cc3N3CCC4(CC3)CC4)ccc2OCF)CCO1 [Compound 464] | ≥ 7.00
O=C(Nc1ccc(OCF)c(N2CCC(F)(F)CC2)c1)c1cnc(S(=O)(=O)NCCO)cc1N1CCC2(CC1)CC2 [Compound 465] | ≥ 7.00
C[C@@H]1CN(c2cc(NC(=O)c3cnc(S(=O)(=O)NCCO)cc3N3CCC4(CC3)CC4)ccc2OCF)CCO1 [Compound 466] | ≥ 7.00
C[C@H]1CN(c2cc(NC(=O)c3cnc(S(=O)(=O)NCCO)cc3N3CCC4(CC3)CC4)ccc2OCF)CCO1 [Compound 467] | ≥ 7.00
O=C(Nc1ccc(OCF)c(N2CC(F)(F)C2)c1)c1cnc(S(=O)(=O)NCCO)cc1N1CCC2(CC1)CC2 [Compound 468] | ≥ 7.00
O=C(Nc1ccc(OCF)c(OCCC(F)(F)F)c1)c1cnc(S(=O)(=O)NCCO)cc1N1CCC2(CC1)CC2 [Compound 469] | ≥ 7.00
O=C(Nc1ccc(OCF)c(N2CCC3(CC3)C2)c1)c1cnc(S(=O)(=O)NCCO)cc1N1CCC2(CC1)CC2 [Compound 470] | ≥ 7.00
O=C(Nc1ccc(OCF)c(OC2CCC2)c1)c1cnc(S(=O)(=O)NCCO)cc1N1CCC2(CC1)CC2 [Compound 471] | ≥ 7.00
CC1(F)CCN(c2cc(NC(=O)c3cnc(S(=O)(=O)NCCO)cc3N3CCC4(CC3)CC4)ccc2OCF)C1 (stereo not shown) [Compound 472] | ≥ 7.00
